# Assay results published in PubChem BioAssay (NCI).
# Several values for one entry are separate records, joined by “and”; a condition that tells them apart may be missing. Equal values may be shown once.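 Growth conditions: 96-well plates. Treatment: test compound, 48 hours, 5 concentrations. Analysis: linear interpolation between bracketing concentrations; unreached endpoints set to highest concentration. At the GI50, growth is halved. TGI denotes the concentration required for complete inhibition of growth.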
# Experiments:
# Experiment in all cases: NCI-60 cell line screen, 48 h
# NCI/ADR-RES ovarian = test system: NCI/ADR-RES ovarian
# MALME-3M melanoma = test system: MALME-3M melanoma
# ACHN renal = test system: ACHN renal
# BT-549 breast = test system: BT-549 breast
# HT29 colon = test system: HT29 colon
# SK-OV-3 ovarian = test system: SK-OV-3 ovarian
# SF-539 CNS = test system: SF-539 CNS
# A549 NSCLC = test system: A549 NSCLC
# LOX IMVI melanoma = test system: LOX IMVI melanoma
# K-562 leukemia = test system: K-562 leukemia
SMILES,GI50 (NCI/ADR-RES ovarian),TGI (NCI/ADR-RES ovarian),GI50 (MALME-3M melanoma),TGI (MALME-3M melanoma),GI50 (ACHN renal),TGI (ACHN renal),GI50 (BT-549 breast),TGI (BT-549 breast),GI50 (HT29 colon),TGI (HT29 colon),GI50 (SK-OV-3 ovarian),TGI (SK-OV-3 ovarian),GI50 (SF-539 CNS),TGI (SF-539 CNS),GI50 (A549 NSCLC),TGI (A549 NSCLC),GI50 (LOX IMVI melanoma),TGI (LOX IMVI melanoma),GI50 (K-562 leukemia),TGI (K-562 leukemia)
COc1cc(C2CC(c3ccc(C)cc3)=NN2C=O)ccc1Oc1ccnc2cc(Cl)ccc12 (stereo not drawn),> 50 µM,> 50 µM,> 50 µM,> 50 µM,4.39 µM,> 50 µM,3.96 µM,> 50 µM,> 50 µM,> 50 µM,7.2 µM,> 50 µM,3.85 µM,27 µM,> 50 µM,> 50 µM,> 50 µM,> 50 µM,> 50 µM,> 50 µM
CNc1ccc2nc3ccc(=[N+](C)C)cc-3sc2c1,0.389 µM and 0.298 µM,9.17 µM and 7.58 µM,0.335 µM and 0.482 µM,2.36 µM and 1.97 µM,0.815 µM and 1.02 µM,10.6 µM and 4.23 µM,4.87 µM and 5.73 µM,20.7 µM and 22.6 µM,2.92 µM and 3.06 µM,12.2 µM and 12.5 µM,4.29 µM and 3.81 µM,18.7 µM and 19.1 µM,0.383 µM and 0.278 µM,2.65 µM and 1.73 µM,0.417 µM and 0.338 µM,12.1 µM and 5.21 µM,0.443 µM and 0.368 µM,4.47 µM and 2.15 µM,0.513 µM and 0.756 µM,14.1 µM and 47.4 µM
O=C1NCc2ccc3c(-c4cccc(Cl)c4)c[nH]c3c21,0.175 µM,> 50 µM,0.191 µM,> 50 µM,0.333 µM,> 50 µM,0.245 µM,> 45.7 µM,0.18 µM,> 50 µM,0.339 µM,> 50 µM,0.166 µM,3.29 µM,0.438 µM,> 50 µM,0.279 µM,> 50 µM,0.134 µM,> 50 µM
C=CCn1c2c(c3ccccc3c1=O)C(=O)c1ccccc1-2,–,> 100 µM,–,> 100 µM,–,> 100 µM,–,> 100 µM,–,> 100 µM,–,> 100 µM,–,> 100 µM,–,> 100 µM,–,> 100 µM,–,> 100 µM
O=C(CCCCCCSc1nc(-c2ccccc2)cc(-c2ccc(Cl)cc2)n1)NO,0.596 µM,8.84 µM,1.25 µM,9.05 µM,1.58 µM,3.64 µM,3.67 µM,17.5 µM,2.05 µM,11.4 µM,2.36 µM,6.04 µM,1.84 µM,5.31 µM,2.16 µM,6.23 µM,2.06 µM,4.66 µM,1.66 µM,10.8 µM
COc1ccc(-c2nn3ncccc3c2-c2ccnc(Nc3ccc(Cl)c(C(F)(F)F)c3)n2)cc1,7.62 µM,> 25 µM,10.8 µM,> 25 µM,10.1 µM,> 25 µM,10.2 µM,> 25 µM,9.88 µM,> 25 µM,13.1 µM,> 25 µM,> 18.9 µM,> 25 µM,10.8 µM,> 25 µM,8.95 µM,> 25 µM,10.8 µM,> 25 µM
COc1cc(-c2nn(-c3ccc(NC(=O)c4ccc(Cl)c(Cl)c4)cc3)cc2-c2ccncc2)ccc1Cl,7.16 µM,> 100 µM,–,–,8.06 µM,> 100 µM,> 100 µM,> 100 µM,2.9 µM,> 100 µM,> 100 µM,> 100 µM,2.85 µM,> 100 µM,> 100 µM,> 100 µM,2.76 µM,> 100 µM,4.05 µM,> 100 µM
C=C1CC2(OC1=O)C(=O)N(CCCCCCCN1C(=O)C3(CC(=C)C(=O)O3)c3ccccc31)c1ccccc12 (stereo not drawn),1.68 µM,8.78 µM,0.955 µM,2.09 µM,1.13 µM,3.07 µM,2.22 µM,9.14 µM,1.49 µM,5.4 µM,9.97 µM,37.8 µM,1.26 µM,4.27 µM,9.16 µM,24.8 µM,0.763 µM,1.54 µM,0.953 µM,6.06 µM
Cc1ncc(CN=Cc2ccc(Cl)cc2)c(N)n1,–,> 100 µM,–,> 100 µM,–,> 100 µM,–,> 100 µM,–,> 100 µM,–,> 100 µM,–,> 100 µM,–,> 100 µM,–,> 100 µM,–,> 100 µM
CCOC(=O)c1ccc(NC(=O)N2CC(C)OC(C)C2)cc1 (stereo not drawn),> 100 µM,> 100 µM,> 100 µM,> 100 µM,> 100 µM,> 100 µM,> 100 µM,> 100 µM,> 100 µM,> 100 µM,> 100 µM,> 100 µM,> 100 µM,> 100 µM,> 100 µM,> 100 µM,> 100 µM,> 100 µM,> 100 µM,> 100 µM
CN(C)c1cccc2c(S(=O)(=O)N[C@H]3CC[C@H]4[C@@H]5CCc6cc(O)ccc6[C@H]5CC[C@]34C)cccc12,2.74 µM,9.9 µM,1.9 µM,5.61 µM,3.1 µM,14.1 µM,2.55 µM,6.5 µM,2.5 µM,5.45 µM,3.83 µM,74.3 µM,1.88 µM,4.14 µM,2.51 µM,10.7 µM,–,–,1.71 µM,> 100 µM
Cc1c2c(nn1-c1ccc(S(=O)(=O)NC(=S)Nc3ccccc3)cc1)-c1ccccc1CC2,> 50 µM,> 50 µM,1.15 µM,> 50 µM,> 50 µM,> 50 µM,> 50 µM,> 50 µM,> 50 µM,> 50 µM,> 50 µM,> 50 µM,> 50 µM,> 50 µM,> 50 µM,> 50 µM,25.8 µM,> 50 µM,> 50 µM,> 50 µM
COc1cccc(C2CC(C)(N3CCCC3)Oc3cc4c(cc32)OCO4)c1O (stereo not drawn),–,62.4 µM,–,> 100 µM,–,> 100 µM,–,87.7 µM,–,45.3 µM,–,> 100 µM,–,46.1 µM,–,> 100 µM,–,> 94.5 µM,–,41.9 µM
COc1ccc(-c2nc3sc(C)cn3c2/C=C/C(=O)c2cc(OC)c(OC)c(OC)c2)cc1,2.8 µM,8.11 µM,–,–,4.13 µM,> 100 µM,4.13 µM,> 100 µM,3.95 µM,> 100 µM,4.19 µM,> 100 µM,4.28 µM,> 100 µM,3.37 µM,> 100 µM,3.51 µM,> 100 µM,3.13 µM,> 100 µM
COc1cc2c(cc1OC)C(=O)/C(=C/c1cccc(OCC(=O)c3ccccc3)c1)C2,6.93 µM,> 100 µM,25.1 µM,> 100 µM,26.7 µM,> 100 µM,24.9 µM,> 100 µM,12.9 µM,> 100 µM,99.2 µM,> 100 µM,16.2 µM,63.9 µM,26.6 µM,> 100 µM,18.3 µM,> 100 µM,3.11 µM,> 100 µM
CCN(CC)CCOc1nc2ccc(OC)cc2c2c1-c1ccc(OC)cc1C2=O,0.848 µM,2.85 µM,1.68 µM,3.22 µM,0.476 µM,1.79 µM,5.94 µM,18 µM,0.545 µM,1.86 µM,2.88 µM,14.8 µM,1.24 µM,2.95 µM,0.387 µM,1.59 µM,0.513 µM,1.88 µM,0.502 µM,2.54 µM
COc1cc(/C(C#N)=C/c2ccc3c(c2OC)OCO3)cc2c1OCO2,0.0346 µM,0.381 µM,0.264 µM,41.1 µM,2.43 µM,> 58.9 µM,0.669 µM,29.3 µM,0.0379 µM,1.04 µM,0.113 µM,14.2 µM,0.0964 µM,2.29 µM,0.0879 µM,> 100 µM,0.07 µM,20.3 µM,0.0358 µM,> 32.9 µM
COc1ccc2cc(C(=O)/C=C/c3cc(OC)c(OC)c(OC)c3)ccc2c1,–,–,11 µM,25.8 µM,7.17 µM,18.2 µM,5.7 µM,19.5 µM,2.72 µM,19.7 µM,12.5 µM,46.4 µM,–,–,2.56 µM,44.5 µM,2.55 µM,11 µM,2.49 µM,> 50 µM
COc1ccc2c(c1)[nH]c(=O)c1c3cc(C)c(C)cc3cn21,–,–,0.161 µM,2.76 µM,< 0.0173 µM,1.58 µM,0.024 µM,0.366 µM,< 0.01 µM,–,< 0.0194 µM,4.59 µM,0.0186 µM,0.0578 µM,< 0.0185 µM,1.32 µM,< 0.014 µM,1.66 µM,< 0.01 µM,0.14 µM
CCOC(=O)c1c2c(n3ccc(NC(=O)CCN4CCCC4)cc13)C(=O)c1ncccc1C2=O,1.27 µM,4.86 µM,15.8 µM,41.4 µM,0.0382 µM,1.52 µM,1.54 µM,3.64 µM,1.57 µM,3.46 µM,2.22 µM,23.5 µM,1.52 µM,3.19 µM,1.03 µM,2.67 µM,–,–,–,–
CC(=O)n1c(COS(C)(=O)=O)nc2ccccc21,–,> 100 µM,–,> 100 µM,–,> 100 µM,–,> 100 µM,–,> 100 µM,–,–,–,> 100 µM,–,> 100 µM,–,> 100 µM,–,–
O=C(Oc1ccc(Cl)cc1Cl)c1ccccc1Nc1ccnc(C(F)(F)F)c1,3.66 µM,11.7 µM,–,–,13.2 µM,27 µM,6.7 µM,25.4 µM,–,–,–,–,3.77 µM,12 µM,11.1 µM,33.1 µM,–,–,3.03 µM,8.51 µM
COc1nc(N(C)O)nc(N(C)O)n1,–,–,2.22 µM,24 µM,0.625 µM,> 100 µM,3.16 µM,> 100 µM,1.03 µM,> 100 µM,1.75 µM,> 100 µM,1.26 µM,9.69 µM,1.39 µM,> 100 µM,0.895 µM,> 100 µM,2.94 µM,> 100 µM
COc1cc2c3c(n(C)c(=O)c2cc1OC)-c1cc2c(cc1/C3=C\CCCCCN)OCO2,2.6 µM,> 48.8 µM,8.38 µM,37.8 µM,0.289 µM,9.28 µM,6.05 µM,21.3 µM,1.17 µM,> 100 µM,8.62 µM,44.7 µM,1.96 µM,14.8 µM,6.53 µM,> 54.5 µM,–,–,–,–
Nc1nc(SCc2ccccn2)c2ncn(C3CCCC3)c2n1,–,> 100 µM,–,> 100 µM,–,> 100 µM,–,> 100 µM,–,> 100 µM,–,> 100 µM,–,–,–,> 100 µM,–,> 100 µM,–,> 100 µM
N#Cc1c(Sc2ccccc2N)cccc1Sc1ccccc1N,15.4 µM,38.4 µM,25.3 µM,–,35.2 µM,–,76.9 µM,–,63.4 µM,–,–,–,69.7 µM,–,56.9 µM,–,–,–,22.9 µM,–
O=C(Nc1ccc(N2CCNCC2)cc1)c1[nH]ncc1Nc1ncnc2sc3c(c12)CCC3,1.48 µM,3.7 µM,0.121 µM,1.77 µM,0.181 µM,1.16 µM,1.13 µM,2.4 µM,–,–,0.257 µM,1.56 µM,0.399 µM,1.81 µM,0.136 µM,0.696 µM,0.199 µM,1.8 µM,0.115 µM,0.472 µM
N#Cc1c(-c2nc3ccccc3s2)c(=O)oc2cc(O)ccc12,–,> 100 µM,–,95.9 µM,–,> 100 µM,–,62.8 µM,–,> 100 µM,–,–,–,> 100 µM,–,> 100 µM,–,> 100 µM,–,> 100 µM
C=C1C(=O)O[C@H]2[C@H]1CC/C(Cn1cc(CNC(=O)Cc3cn(C(=O)c4ccc(Cl)cc4)c4ccc(OC)cc34)nn1)=C\CC[C@@]1(C)O[C@@H]21,46.3 µM,> 100 µM,1.62 µM,3.18 µM,1.92 µM,3.71 µM,1.61 µM,3.41 µM,1.67 µM,3.5 µM,16.1 µM,32.9 µM,1.57 µM,2.96 µM,12.7 µM,29.6 µM,–,–,–,–
